Measured values as given in patent US11110158B2, “Prostate-associated antigens and vaccine-based immunotherapy regimens” (Pfizer Inc., priority 2012, dated 2021).

How the values were obtained:
[1] = system: hPSMA full-length protein; test: IFN-γ ELISPOT, hPSMA modified versus full-length DNA vaccine in C57BL/6 mice; assay type: in vivo, human; conditions: Example 7, FIG. 26; C57BL/6, PMED days 0, 14, 28; day 35
From the text: The immune responses induced by DNA vaccination using a construct encoding an immunogenic PSMA polypeptide (the “human PSMA modified antigen” or “hPSMA modified”) consisting 15-750 amino acids (aa) of the native human PSMA protein of SEQ ID NO: 1 were compared with those induced by the native human full-length PSMA protein (hPSMA full length). Groups of female C57BL/6 mice or female Pasteur (HLA-A2/DR1) transgenic mice were primed on day 0 and boosted on days 14, 28 by PMED administration with a 2 μg dose of a DNA vaccine encoding either hPSMA full-length or hPSMA modified protein. Mice were bled and sacrificed on day 35 (7 days after the third vaccination) and T cell immune responses against the hPSMA full-length protein were determined in splenocytes by IFN-γ ELISPOT assay. For C57BL/6 mice, single cell suspensions of 5×10^5 splenocytes from individual animals were plated per well with […] purified hPSMA protein, 5×10^4 TRAMP-C2 cells alone, or TRAMP-C2 cells expressing hPSMA or a PSMA-PSA-PSCA fusion protein. […] Responses in Pasteur mice were also determined using 10 μg/ml purified PSMA protein or 5×10^4 SK-Mel5 cells that had been transduced with Adenoviral vectors expressing a control protein (Ad-eGFP) or the full-length human PSMA protein (Ad-hPSMA). […] The number of IFN-γ SFC was counted by a CTL reader. […]

native PSMA protein = test: Sandwich ELISA, anti-PSMA antibody titers in serum of vaccinated Pasteur mice; assay type: in vivo, mouse
Procedure: The standard sandwich ELISA assay was done using an automated Biotek system. The plates were coated with 25 μl of native PSMA protein at a 1.0 μg/ml in PBS overnight, the plates were washed and blocked with 35 μl/well of 5% FBS 1×PBS-T 0.05% and incubated for 1 hour at RT on a shaker at 600 RPM. The blocking media was decanted and serial dilute vaccinated mouse serum with half log dilutions in 5% FBS 1×PBS-T 0.05% starting at 1:100 or 1:500 were made and 25μ samples of the diluted serum were added to each well of the 96 well plates and incubated for 1 hour at RT on a shaker at 600 RPM. The plates were washed 3 times with 75 ul/well in 1×PBS-T 0.05% using the Biotek ELx405, and 25 μl/well of 1:30,000 diluted anti-mouse IgG HRP (AbCam cat #ab20043) secondary antibody (diluted in 1×PBS-T 0.05%) was added to each well of the 96 well plates and incubated for 1 hour at RT on a shaker at 600 RPM. Plates were washed 5× with 75 ul/well in 1×PBS-T 0.05% using the Biotek EIx405. TMB Substrate was diluted at 1:10 and 25 μl was added to each well and incubated at RT for 30 minutes. The reaction was stopped by adding 12.5 μl/well of 1M H2SO4. Plates were read using the Spectramax Plus at 450 nm wavelength. Data were reported as titers and these could be reported as first positive (average and both values above 5% FBS PBS+3 time Standard Deviation) and/or as calculated titers at OD of 0.5 or 1.0. Serum from irrelevant vaccinated mice were used as negative controls.
Eight- to 10-week old Pasteur mice were immunized using PMED method with the various plasmid DNAs expressing shuffled PSMA modified antigens in a prime/boost/boost regimen, two weeks apart between each vaccination as described in Example 1F. Antigen specific T and B cell responses were measured 7 days after the last immunization in an interferon-gamma (IFNγ) ELISPOT assay and sandwich ELISA respectively.

For “PSMA modified: membrane-bound polypeptide of amino acids 15-750 of human PSMA, SEQ ID NO: 9; tested as DNA construct”, the “IFN-γ T cell responses to TRAMP C2-PSMA or purified hPSMA protein” value [1] was “equivalent T cell immune responses”, the “ELISA (OD = 1) Average (+/−SD)” value (native PSMA protein; Table 3, anti-PSMA antibody titer calculated at OD of 1, Pasteur mice) was 1067 (518) and the “# of positive” value (native PSMA protein; Table 3, mice with anti-PSMA antibody response by ELISA / N) was 4/4. For the same substance, the “ELISA (OD = 0.5)” value (native PSMA protein; Table 10, anti-PSMA antibody titer calculated at OD of 0.5, Pasteur mice) was 1159 (802) and the “# of positive” value (native PSMA protein; Table 10, mice with anti-PSMA antibody response by ELISA / mice tested) was 7/7.
